From PMC5890244, “Stimulus dependent diversity and stereotypy in the output of an olfactory functional unit” (Nature Communications, 2018)
pEC50: −log10 of the molar value.

Molecular target: T1, M72 odorant receptor (olfr160) (Mus musculus, UniProt A1L3R1)
T1 construct: full-length native receptor in its own olfactory sensory neurons of gene-targeted M72-GFP mice (neonatal epithelium); GFP serves as cell marker
T1 sequence (A1L3R1 1-309): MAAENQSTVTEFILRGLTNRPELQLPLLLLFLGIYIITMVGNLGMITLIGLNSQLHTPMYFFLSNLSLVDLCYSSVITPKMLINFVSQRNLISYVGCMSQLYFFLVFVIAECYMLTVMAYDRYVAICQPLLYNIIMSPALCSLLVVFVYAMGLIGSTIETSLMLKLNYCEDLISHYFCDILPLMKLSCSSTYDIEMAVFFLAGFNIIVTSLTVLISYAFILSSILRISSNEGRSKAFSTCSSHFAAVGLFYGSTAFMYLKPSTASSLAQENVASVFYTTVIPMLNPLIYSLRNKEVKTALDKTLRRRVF
Experiment: perforated patch clamp of dendritic knobs of M72-expressing OSNs, Hill fit
Format: cell-based
Conditions: 20-23 °C, pH 7.4; native OSNs; odorant from DMSO stock by pressure ejection; lower end of range, strongest ligand
Excerpt: perforated patch clamp of dendritic knobs of M72-expressing OSNs, Hill fit on M72 odorant receptor (olfr160) | 2HA is the strongest ligand yet identified for M72 | Normalized dose–response curves for seven M72 ligands fitted by the Hill equation

pEC50: 7.52
SMILES: CC(=O)c1ccccc1O [2HA, 2-hydroxyacetophenone]
